Blank lines part the entries; values can stand above or below the compound they belong to.
What was measured:
[1] = test system: S. aureus; test: MBC testing of chlorinated HASA; type: cell-based, Staphylococcus aureus; conditions: for MBC: Staphylococcus aureus
Experimental: (§1) NaDCC, NaOC, HOC, and HASA-Cl solutions were prepared at chlorine concentrations of 300, 250, 200, 150, 100, and 50 ppm and mixed with a S. aureus suspension containing […] as an organic load for 30 seconds. After 30 seconds, the mixtures were neutralized with Na2S2O3 to quench oxidative chlorine, added to tryptic soy broth (TSB), and incubated (e.g., for 48 hours at 37° C.). Following the incubation, samples were assessed for S. aureus growth inhibition to determine the minimum inhibitory concentration (MIC). […] To determine the minimum biocidal concentration (MBC), samples were plated on agar and viable colonies counted. […] The analysis was run in duplicate with a 8.34 log inoculum concentration of S. aureus in the first analysis and a 8.37 log inoculum concentration of S. aureus in the second analysis.
(§2) NaDCC, NaOCl, HOC, and HASA-Cl solutions were prepared at chlorine concentrations of 800, 700, 600, 500, 400, 300, 200, and 100 ppm and mixed with a suspension of S. aureus containing 10% FBS or 15% as an organic load and reacted for 1 minute or 5 minutes. After reacting, the mixtures were neutralized with Na2S2O3 to quench oxidative chlorine, added to tryptic soy broth (TSB), and incubated (e.g., for 48 hours at 37° C.). Following the incubation, samples were assessed for S. aureus growth inhibition to determine the MIC. […] To determine the MBC, samples were plated on agar and viable colonies counted. […] The analysis was run in duplicate with a 8.23 log inoculum concentration of S. aureus.
(§3) Three solutions of HASA-Cl (HASA-Cl_D, HASA-Cl_E, and HASA-Cl_F) were prepared by chlorinating HASA55 in aqueous HOCl at varying HASA55:chlorine stoichiometric molar ratios, isolating the chlorinated HASA55-Cl polymer, and dissolving the chlorinated polymer in water. The three HASA-Cl solutions and HASA-HOCl, NaDCC, NaOCl, and HOCl solutions were diluted to chlorine concentrations of 300, 250, 200, 150, 100, and 50 ppm, mixed with a suspension of S. aureus with 5% FBS organic load, and reacted for 30 seconds. After reacting, the mixtures were neutralized to remove oxidative chlorine, added to tryptic soy broth, and incubated (e.g. for 48 hours at 37° C.). Following the incubation, samples were assessed for S. aureus growth inhibition to determine the MIC. To determine the MBC, samples were plated on agar and viable colonies counted. […] The analysis was run in duplicate with a 8.34 log inoculum concentration of S. aureus in the first experiment and a 8.37 log inoculum concentration of S. aureus in the second experiment.

[2] = test system: S. aureus; test: MIC testing of chlorinated HASA; type: cell-based, Staphylococcus aureus; conditions: for MIC: Staphylococcus aureus
Experimental: as §1, §2, §3

[3] = Chlorine stability of chlorinated HA and HASA55 solutions over 10 weeks (available chlorine, DPD); type: physicochemical
Experimental: (§4) Various aqueous electrophilic halogen solutions were used to dissolve HASA55 powder. Undiluted disinfexol stock solution was used as HOCl source, Clorox® germicidal bleach diluted 1:48 volumetrically was used as a NaOCl source, and a stock solution of Purtab prepared by dissolving 1 tablet in a quart of water was used as a NaDCC source. Various samples of HASA55 solutions chlorinated with HOCl, NaOCl, and NaDCC were prepared by dissolving HASA55 in the electrophilic halogen source solutions at stoichiometric molar ratios of 2:1, 1:1, 1:2, 1:4, and 1:8 HASA55:electrophilic halogen source for HOCl and NaOCl, and at stoichiometric molar ratios of 4:1, 2:1, 1:1, 1:2, and 1:4 HASA55:NaDCC. Various samples of HA monomers chlorinated with HOCl, NaOCl, and NaDCC were prepared by dissolving HA monomer in the electrophilic halogen source solutions at stoichiometric molar ratios of 2:1, 1:1, 1:2, 1:3, and 1:6 HA:electrophilic halogen source for HOCl and NaOCl, and at stoichiometric molar ratios of 4:1, 2:1, 1:1, 1:1.5, and 1:3 for HA:NaDCC. The resulting solutions were sealed and stored in air-tight bottles to assess the amount of available chlorine and the pH of the solution over time. Available chlorine concentrations were calculated according to a spectrophotometric method using a DPD indicator as detailed above and pH was calculated using a pH meter.

[4] = Residual chlorine content of dried chlorinated N-halamine coatings on SS304 coupons; type: physicochemical; conditions: for Estimated residual Cl (%): SS304 coupon
Experimental: HASA-Cl solutions were prepared according to procedures detailed in EXAMPLE 6 above. Stainless steel 304 (SS304) coupons with a dimension of 1″×1″ and thickness of 0.024″ were scrubbed with a sponge and 1% detergent (e.g., Liquinox®), rinsed with deionized water, and dried. To the dried SS304 coupons, a 1 mL sample of a HASA-Cl, HA-Cl, or electrophilic halogen solution was pipetted using a micropipette without rinsing or wiping the coupon after pipetting. The sample coupons coated with HASA-Cl HA-Cl, and electrophilic halogen sources, were stored at ambient temperature and humidity with indoor light exposure. […] HASA/HOCl solutions with high stoichiometric molar amounts of HASA (2:1 HASA:HOCl and 1:1 HASA:HOCl) formed coatings with a flaked dried polymer appearance, while the other solutions formed coatings with a stain-like appearance with a majority of the SS304 base substrate exposed.
To extract chlorine from the surface of a SS304 sample coupon, a sample coupon was added to a centrifuge tube containing 20 mL of deionized water, 200 mg of K1, and 10 drops of 4N acetic acid. The mixture containing the sample coupon was mixed by shaking (e.g. at 120 rpm for 10 minutes), and solution removed and added to a glass sample cell for analysis by spectrophotometry with a DPD indicator according to the procedure detailed above. The amount of chlorine was calculated against a chlorine standard curve. Chlorine density was calculated according to the following formula: […]
The bars are presented in the order Day 1, Day 2, Day 3, Day 7, and Day 28. […] At 28 days, the chlorine density of HASA/HOCl and HA/HOCl solutions decreased, to around half of the Day 1 chlorine density. […] Estimated residual chlorine percentages were calculated from the ratio of the amount of chlorine retrieved from the dried coating over the amount of chlorine deposited in the 1 mL solution. TABLE 19 summarizes the estimated residual chlorine percentages of HA/HOCl and HASA/HOCl solutions over the 28 days. Estimated residual chlorine percentages were stable for up to 1 week for HASA/HOCl solutions with stoichiometric molar ratios of HASA:HOCl higher than 1:2, aligning with the chlorine density data.

[5] = pH of chlorinated HA and HASA55 solutions over time; type: physicochemical; conditions: HOCl series, 10 weeks
Experimental: as §4

[6] = 5% FBS organic load, 30 seconds (Table 18)
[7] = Exp 1, 5 FBS organic load, 30 seconds, 8.34 log inoculum
[8] = Exp 2, 5 FBS organic load, 30 seconds, 8.37 log inoculum
[9] = Exp 1, 5 FBS organic load, 30 seconds, 8.34 log inoculum, ppm chlorine

MIC value [2, 6]: 150 ppm
MIC value ([2]; 10% FBS, 1 min): 300 ppm
MIC value ([2]; 10% FBS, 5 min): 100 ppm
MIC value ([2]; 15% FBS, 1 min): 300 ppm
MIC value ([2]; 15% FBS, 5 min): 200 ppm
MIC value [2, 9]: 150 ppm
MIC value [2, 8]: 100 ppm
chlorine loss (in words) ([3]; HOCl series, 10 week period): lowest chlorine loss
available chlorine ([3]; HOCl series, Day 0): 707 mg/L
available chlorine ([3]; HOCl series, W 0): 727 mg/L
available chlorine ([3]; HOCl series, W 4): 687 mg/L
available chlorine ([3]; HOCl series, W 6): 637 mg/L
available chlorine ([3]; HOCl series, W 10): 607 mg/L
available chlorine ([3]; NaOCl series, Day 0): 1443
available chlorine ([3]; NaOCl series, W 1): 1447
available chlorine ([3]; NaOCl series, W 3): 1443
available chlorine ([3]; NaOCl series, W 6): 1520
available chlorine ([3]; NaOCl series, W 10): 1537
Estimated residual Cl (%) ([4]; 1 mL deposited, Day 1): 0.1%
Estimated residual Cl (%) ([4]; Day 2): 0.2%
Estimated residual Cl (%) ([4]; Day 3): 0.3%
Estimated residual Cl (%) ([4]; Day 7): 0.1%
Estimated residual Cl (%) ([4]; Day 28): 0.2%
residual chlorine density (in words) ([4]; SS304 coupons, Day 1): no residual chlorine density
pH over time (in words) [5]: stable pH
Compound: OCl [HOCl, hypochlorous acid]
MBC value [1, 6]: 150 ppm
MBC value ([1]; 10% FBS, 1 min): 300 ppm
MBC value ([1]; 10% FBS, 5 min): 200 ppm
MBC value ([1]; 15% FBS, 1 min): 300 ppm
MBC value ([1]; 15% FBS, 5 min): 300 ppm
MBC value [1, 7]: 150 ppm
MBC value [1, 8]: 100 ppm

Compound: O=c1nc([O-])n(Cl)c(=O)n1Cl.[Na+] [NaDCC, sodium dichloroisocyanurate]
MBC value [1, 6]: 150 ppm
MBC value ([1]; 10% FBS, 1 min): 200 ppm
MBC value ([1]; 10% FBS, 5 min): 200 ppm
MBC value ([1]; 15% FBS, 1 min): 300 ppm
MBC value ([1]; 15% FBS, 5 min): 200 ppm
MBC value [1, 7]: 150 ppm
MBC value [1, 8]: 150 ppm
MIC value [2, 6]: 100 ppm
MIC value ([2]; 10% FBS, 1 min): 200 ppm
MIC value ([2]; 10% FBS, 5 min): 200 ppm
MIC value ([2]; 15% FBS, 1 min): 300 ppm
MIC value ([2]; 15% FBS, 5 min): 200 ppm
MIC value [2, 9]: 150 ppm
MIC value [2, 8]: 100 ppm
available chlorine over time (in words) ([3]; NaDCC series, 6-week time period): low available chlorine levels
available chlorine ([3]; NaDCC series, Day 0): 1120
available chlorine ([3]; NaDCC series, W 1): 967
available chlorine ([3]; NaDCC series, W 3): 753
available chlorine ([3]; NaDCC series, W 6): 530
available chlorine ([3]; NaDCC series, W 10): 330

MIC [2, 6]: 200 µg/mL
MIC ([2]; 1 min, 10% FBS): 400 µg/mL
MIC ([2]; 1 min, 15% FBS): 500 µg/mL
MIC ([2]; 5 min, 10% FBS): 100 µg/mL
MIC ([2]; 5 min, 15% FBS): 100 µg/mL
MIC [2, 9]: 100 µg/mL
MIC [2, 8]: 100 µg/mL
chlorine levels and pH over time (in words) ([3]; NaOCl series): no chlorine loss and no change in pH
Compound: OCl [NaOCl, sodium hypochlorite]
MBC value [1, 8]: 250 ppm
MBC [1, 6]: 200 µg/mL
MBC ([1]; 1 min, 10% FBS): 400 µg/mL
MBC ([1]; 1 min, 15% FBS): 500 µg/mL
MBC ([1]; 5 min, 10% FBS): 200 µg/mL
MBC ([1]; 5 min, 15% FBS): 400 µg/mL
MBC [1, 7]: 200 µg/mL

Reference: patent US20250261637A1, “DISINFECTANT COMPOSITIONS AND METHODS THEREOF” (HALOMINE INC., priority 2022, published 2025)
